From paper PMC2248166, “Quantitative peptide binding motifs for 19 human and mouse MHC class I molecules derived using positional scanning combinatorial peptide libraries” (Immunome Research, 2008) come the findings set out here.

The assay has as its target HLA A*3001 (Homo sapiens, UniProt P04439, D140H/D185E/E176W/F33S/G80R/H175R/K168Q/R138E/R41S). The experiment in a line: biochemical. It is filed as binding.

Structures are written as SMILES. Where a SMILES comes first, the peptide text is derived from it.

HLA A*3001, sequence (P04439 25-365 limits assumed, stated change not applied): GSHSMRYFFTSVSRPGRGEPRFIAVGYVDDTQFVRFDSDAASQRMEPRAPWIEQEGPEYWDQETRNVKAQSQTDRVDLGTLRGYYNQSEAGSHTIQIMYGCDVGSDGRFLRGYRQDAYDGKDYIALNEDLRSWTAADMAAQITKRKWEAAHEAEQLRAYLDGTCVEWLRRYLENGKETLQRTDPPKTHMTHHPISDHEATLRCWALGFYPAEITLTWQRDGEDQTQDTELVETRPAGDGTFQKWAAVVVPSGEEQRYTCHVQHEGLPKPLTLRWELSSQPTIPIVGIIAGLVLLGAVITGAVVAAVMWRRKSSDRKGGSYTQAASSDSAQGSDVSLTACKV

Regarding `CC[C@H](C)[C@H](N)C(=O)N[C@@H](CO)C(=O)N[C@@H](CCCNC(=N)N)C(=O)N[C@@H](CC(N)=O)C(=O)N[C@@H](CCCCN)C(=O)N[C@@H](CC(N)=O)C(=O)N[C@H](C(=O)N[C@@H](Cc1ccccc1)C(=O)N[C@H](C(=O)O)C(C)C)[C@@H](C)CC` [3102.0199] (H-ISRNKNIFV-OH), it took 7.3 nM to reach half-maximal inhibition (IC50).

For `CC(C)C[C@H](NC(=O)[C@H](CC(N)=O)NC(=O)[C@H](CC(C)C)NC(=O)[C@H](CCCNC(=N)N)NC(=O)[C@H](CCCNC(=N)N)NC(=O)[C@H](CO)NC(=O)[C@H](CCCCN)NC(=O)[C@H](CO)NC(=O)[C@@H](N)CCCCN)C(=O)O` [3102.0008] (H-KSKSRRLNL-OH), the IC50 (commonly the concentration that gives 50% inhibition) was found to be 13 nM.

Take `CC[C@H](C)[C@H](N)C(=O)N[C@H](C(=O)N[C@@H](CCCCN)C(=O)N[C@H](C(=O)N[C@@H](CC(N)=O)C(=O)N[C@H](C(=O)N[C@@H](Cc1c[nH]cn1)C(=O)N[C@@H](CC(C)C)C(=O)N[C@@H](C)C(=O)O)[C@@H](C)O)[C@@H](C)CC)[C@@H](C)O` [3102.0001] (H-ITKINTHLA-OH): the midpoint of inhibition, the IC50, lay at 15 nM.

Turning to `CC[C@H](C)[C@H](NC(=O)[C@@H](N)CCCCN)C(=O)N[C@@H](CCCCN)C(=O)N[C@@H](C)C(=O)NCC(=O)N1CCC[C@H]1C(=O)N[C@@H](CCCNC(=N)N)C(=O)N[C@@H](Cc1ccc(O)cc1)C(=O)N[C@H](C(=O)O)C(C)C` [3102.0097] (H-KIKAGPRYV-OH), the IC50 turned out to be 6.9 nM.

Consider `CC[C@H](C)[C@H](NC(=O)[C@H](CCCCN)NC(=O)[C@@H](NC(=O)[C@@H](N)CCCNC(=N)N)[C@@H](C)O)C(=O)N[C@H](C(=O)N[C@@H](CO)C(=O)N[C@@H](CC(C)C)C(=O)N1CCC[C@H]1C(=O)N[C@@H](CC(C)C)C(=O)O)[C@@H](C)O` [3102.0201] (H-RTKITSLPL-OH), for which the IC50 stood at 0.087 nM.

Take `CC[C@H](C)[C@H](NC(=O)[C@@H]1CCCN1C(=O)[C@H](C)NC(=O)[C@H](CO)NC(=O)[C@H](C)NC(=O)[C@@H]1CCCN1C(=O)[C@H](CCCCN)NC(=O)[C@@H](NC(=O)[C@@H](N)CCCNC(=N)N)[C@@H](C)O)C(=O)O` [3102.0187] (H-RTKPASAPI-OH): the IC50 is 0.11 nM.

Compound `CC(C)C[C@H](NC(=O)[C@H](Cc1ccc(O)cc1)NC(=O)[C@H](CO)NC(=O)[C@H](CO)NC(=O)[C@H](CO)NC(=O)[C@@H](NC(=O)[C@@H](N)CO)[C@@H](C)O)C(=O)N[C@@H](Cc1ccc(O)cc1)C(=O)N[C@@H](C)C(=O)O` [3102.0171] (H-STSSSYLYA-OH) came in with an IC50 of 13 nM.

As for `C[C@H](N)C(=O)N[C@H](C(=O)N[C@@H](C)C(=O)N[C@@H](CCCNC(=N)N)C(=O)N[C@@H](CO)C(=O)N[C@@H](CO)C(=O)N1CCC[C@H]1C(=O)N[C@@H](CCC(=O)O)C(=O)N[C@@H](CCCCN)C(=O)O)[C@@H](C)O` [3102.0148] (H-ATARSSPEK-OH), half-maximal inhibition (IC50) was put at 0.58 nM.

On to `C[C@@H](O)[C@H](N)C(=O)N[C@H](C(=O)N[C@@H](CCCCN)C(=O)N[C@@H](CC(=O)O)C(=O)N[C@@H](Cc1ccc(O)cc1)C(=O)N[C@@H](Cc1ccccc1)C(=O)N[C@@H](CO)C(=O)N[C@@H](Cc1ccccc1)C(=O)N[C@@H](CCCCN)C(=O)O)[C@@H](C)O` [3102.0168] (H-TTKDYFSFK-OH), for which 1.2 nM corresponded to half-maximal inhibition (IC50).

`CC[C@H](C)[C@H](NC(=O)[C@H](Cc1ccccc1)NC(=O)[C@H](Cc1ccccc1)NC(=O)[C@H](CO)NC(=O)[C@H](CC(N)=O)NC(=O)[C@H](CO)NC(=O)[C@H](CC(C)C)NC(=O)[C@@H](N)Cc1c[nH]cn1)C(=O)N[C@@H](CCCCN)C(=O)O` [3102.0086] (H-HLSNSFFIK-OH) had an IC50 of 17 nM.

In turn, `CC(C)C[C@H](NC(=O)[C@H](CC(C)C)NC(=O)[C@H](Cc1ccc(O)cc1)NC(=O)[C@@H](NC(=O)[C@H](C)NC(=O)[C@H](CCCCN)NC(=O)[C@@H](NC(=O)[C@@H](N)C(C)C)C(C)C)[C@@H](C)O)C(=O)N[C@@H](CCCCN)C(=O)O` [3102.0181] (H-VVKATYLLK-OH) gave an IC50 of 0.32 nM.

For the compound `CSCC[C@H](NC(=O)[C@H](Cc1ccccc1)NC(=O)[C@H](CCCCN)NC(=O)[C@H](CCCNC(=N)N)NC(=O)[C@H](CO)NC(=O)[C@@H](N)CCSC)C(=O)N[C@@H](CCC(N)=O)C(=O)N[C@H](C(=O)N[C@@H](Cc1ccc(O)cc1)C(=O)O)C(C)C` [3102.0264] (H-MSRKFMQVY-OH), the IC50 came out at 1.5 nM.

In the case of `CC(C)[C@H](NC(=O)[C@@H](N)CCCCN)C(=O)N[C@@H](Cc1ccccc1)C(=O)N[C@H](C(=O)N1CCC[C@H]1C(=O)N[C@@H](C)C(=O)N1CCC[C@H]1C(=O)N[C@@H](Cc1ccccc1)C(=O)NCC(=O)O)C(C)C` [3102.0015] (H-KVFVPAPFG-OH), 6.6 nM corresponded to half-maximal inhibition (IC50).

`CC[C@H](C)[C@H](NC(=O)[C@H](CC(=O)O)NC(=O)[C@H](CC(C)C)NC(=O)[C@@H](NC(=O)[C@@H](N)CCCCN)[C@@H](C)O)C(=O)N[C@@H](CO)C(=O)N[C@@H](CO)C(=O)N[C@@H](Cc1ccccc1)C(=O)N[C@@H](Cc1ccc(O)cc1)C(=O)O` [3102.0151] (H-KTLDISSFY-OH): the midpoint of inhibition, the IC50, lay at 23 nM.

For the compound `CC[C@H](C)[C@H](NC(=O)[C@H](CCSC)NC(=O)[C@H](C)NC(=O)[C@H](C)NC(=O)[C@H](CCCNC(=N)N)NC(=O)[C@H](CC(C)C)NC(=O)[C@@H](N)[C@@H](C)O)C(=O)N[C@@H](CO)C(=O)N[C@@H](CC(C)C)C(=O)O` [3102.0245] (H-TLRAAMISL-OH), 0.71 nM corresponded to half-maximal inhibition (IC50).

The compound `CC[C@H](C)[C@H](NC(=O)[C@H](CC(N)=O)NC(=O)[C@H](CCCNC(=N)N)NC(=O)[C@@H](NC(=O)[C@@H](NC(=O)[C@H](CC(N)=O)NC(=O)[C@H](CCCNC(=N)N)NC(=O)[C@@H](NC(=O)[C@@H](N)CCCCN)[C@@H](C)O)C(C)C)[C@@H](C)CC)C(=O)O` [3102.0486] (H-KTRNVIRNI-OH) yielded an IC50 of 0.072 nM.

As to `CC[C@H](C)[C@H](NC(=O)[C@@H](N)CCCCN)C(=O)N[C@@H](CCCCN)C(=O)N[C@@H](CO)C(=O)N[C@@H](CO)C(=O)N[C@@H](CC(N)=O)C(=O)N[C@@H](CO)C(=O)N[C@@H](CO)C(=O)N[C@@H](CCCCN)C(=O)O` [3102.0091] (H-KIKSSNSSK-OH), 15 nM corresponded to half-maximal inhibition (IC50).

Take `CC[C@H](C)[C@H](NC(=O)[C@H](CCCNC(=N)N)NC(=O)CNC(=O)[C@@H](N)CCCCN)C(=O)N[C@@H](CO)C(=O)N[C@@H](Cc1ccc(O)cc1)C(=O)N[C@@H](Cc1ccc(O)cc1)C(=O)N[C@@H](CCC(=O)O)C(=O)N[C@@H](CCSC)C(=O)O` [3102.0058] (H-KGRISYYEM-OH): half-maximal inhibition (IC50) was put at 14 nM.

For `CC[C@H](C)[C@H](NC(=O)[C@H](Cc1c[nH]cn1)NC(=O)[C@@H](NC(=O)[C@H](CC(N)=O)NC(=O)[C@H](CCCCN)NC(=O)[C@@H](NC(=O)[C@@H](N)CCCCN)C(C)C)C(C)C)C(=O)NCC(=O)NCC(=O)O` [3102.0099] (H-KVKNVHIGG-OH), the IC50 turned out to be 0.34 nM.

Take `CC[C@H](C)[C@H](NC(=O)[C@H](CCCNC(=N)N)NC(=O)[C@@H]1CCCN1C(=O)[C@H](CO)NC(=O)[C@H](C)NC(=O)[C@H](CCCNC(=N)N)NC(=O)[C@H](CO)NC(=O)[C@@H](N)Cc1c[nH]cn1)C(=O)NCC(=O)O` [3102.0216] (H-HSRASPRIG-OH): 0.93 nM corresponded to half-maximal inhibition (IC50).

Regarding `CSCC[C@H](NC(=O)[C@H](CCCNC(=N)N)NC(=O)CNC(=O)[C@H](CO)NC(=O)[C@H](CO)NC(=O)[C@@H](NC(=O)[C@@H](N)CCCCN)[C@@H](C)O)C(=O)N1CCC[C@H]1C(=O)N[C@H](C(=O)O)C(C)C` [3102.0119] (H-KTSSGRMPV-OH), the IC50 was determined as 2 nM.

`CC[C@H](C)[C@H](NC(=O)[C@H](C)NC(=O)[C@H](CC(C)C)NC(=O)[C@H](Cc1c[nH]cn1)NC(=O)[C@H](CCC(N)=O)NC(=O)[C@@H](N)Cc1c[nH]cn1)C(=O)N[C@@H](CCSC)C(=O)N[C@@H](Cc1ccccc1)C(=O)N[C@@H](CCCCN)C(=O)O` [3102.0020] (H-HQHLAIMFK-OH) gave an IC50 of 5 nM.

The compound `CC[C@H](C)[C@H](N)C(=O)N[C@@H](CO)C(=O)N[C@@H](CCCNC(=N)N)C(=O)N[C@@H](Cc1ccccc1)C(=O)N[C@@H](C)C(=O)N[C@@H](CC(N)=O)C(=O)N[C@@H](CC(C)C)C(=O)N[C@H](C(=O)N[C@@H](CCCCN)C(=O)O)[C@@H](C)CC` [3102.0098] (H-ISRFANLIK-OH) yielded an IC50 of 13 nM.

`C[C@H](NC(=O)[C@H](C)NC(=O)[C@@H]1CCCN1C(=O)[C@H](CCCCN)NC(=O)[C@H](CO)NC(=O)[C@H](CCCNC(=N)N)NC(=O)[C@H](CO)NC(=O)[C@H](Cc1ccc(O)cc1)NC(=O)[C@@H](N)CCCCN)C(=O)O` [3102.1349] (H-KYSRSKPAA-OH): the IC50 was 5.7 nM.

Compound `CSCC[C@H](NC(=O)[C@H](CC(C)C)NC(=O)[C@@H](NC(=O)[C@@H](N)Cc1c[nH]cn1)C(C)C)C(=O)N[C@@H](Cc1c[nH]cn1)C(=O)N[C@@H](CO)C(=O)N1CCC[C@H]1C(=O)N[C@@H](CC(C)C)C(=O)N[C@H](C(=O)O)C(C)C` [3102.0062] (H-HVLMHSPLV-OH) registered an IC50 of 30 nM.

`C[C@H](NC(=O)[C@H](CCCNC(=N)N)NC(=O)[C@H](CC(N)=O)NC(=O)[C@H](CCC(N)=O)NC(=O)[C@H](Cc1ccccc1)NC(=O)[C@H](CCCCN)NC(=O)[C@@H](NC(=O)[C@@H](N)CCCNC(=N)N)[C@@H](C)O)C(=O)N[C@@H](CCCCN)C(=O)O` [3102.0266] (H-RTKFQNRAK-OH) came in with an IC50 of 0.16 nM.

With `CC[C@H](C)[C@H](NC(=O)[C@H](CC(N)=O)NC(=O)[C@@H]1CCCN1C(=O)[C@@H](NC(=O)[C@H](Cc1c[nH]cn1)NC(=O)[C@H](CC(N)=O)NC(=O)[C@H](CCCCN)NC(=O)[C@@H](NC(=O)[C@@H](N)CCCCN)C(C)C)[C@@H](C)CC)C(=O)O` [3102.0222] (H-KVKNHIPNI-OH), 0.68 nM corresponded to half-maximal inhibition (IC50).

`CSCC[C@H](NC(=O)[C@@H](N)CCCCN)C(=O)N[C@@H](CCCNC(=N)N)C(=O)N[C@@H](CC(=O)O)C(=O)N[C@H](C(=O)N[C@@H](CC(C)C)C(=O)N1CCC[C@H]1C(=O)N[C@@H](C)C(=O)N[C@@H](CCCCN)C(=O)O)[C@@H](C)O` [3102.0121] (H-KMRDTLPAK-OH): the IC50 is 1.6 nM.

`CC(C)C[C@H](NC(=O)[C@H](Cc1c[nH]cn1)NC(=O)[C@H](CC(N)=O)NC(=O)[C@H](CS)NC(=O)[C@H](CCCNC(=N)N)NC(=O)[C@H](C)NC(=O)[C@@H](N)CCCCN)C(=O)N[C@H](C(=O)N[C@@H](CCCCN)C(=O)O)[C@@H](C)O` [3102.0131] (H-KARCNHLTK-OH) yielded an IC50 of 0.21 nM.
